Tests used:
[1] = test system: horn fly; assay: in-vivo efficacy studies A and B: pour-on formulations for control of horn fly on cows; parameters: species or system Haematobia irritans on cows; conditions: 30% Tributyl acetyl citrate
Protocol: Although many different actives may work with the formulation of the invention, 1H-pyrazole-3-carbonitrile, 1-[2,6-dichloro-4-(trifluoromethyl)phenyl]-5-methyl-4-[(trifluoromethyl)sulfinyl] (i.e., ML465) is the compound used to test topical formulations for control of horn fly on cows for a duration of one month or longer.
(§1) In-vivo and in-vitro studies were conducted to compare wash-off resistance of formulations prepared with lipophilic solvents and with polymers.
It can be seen that the amount of ML465 washed off is at, or below, 10% of the applied dose, indicating a sharp decrease upon exposure to water. This was not sufficient to support thirty days efficacy duration. Thus, efficacy may depend on resistance of the solvent system to water exposure.

[2] = In-lab water resistance (% ML465 removed after water exposure); format: physicochemical; conditions: for In-lab Water Resistance (% ML465 Removed after Water Exposure (n = 2)): 30% Tributyl acetyl citrate
Protocol: as §1
The in-vivo studies of Table 1 were followed with in-vitro studies conducted to assess water resistance of “conventional” solvent systems. Conventional pour-on solvent formulations described below were tested using ML465 as the active under exposure to water for 20 and 40 minutes.
Next, the water resistance of the inventive solvent systems was tested in vitro.

For `Cc1c([S+]([O-])C(F)(F)F)c(C#N)nn1-c1c(Cl)cc(C(F)(F)F)cc1Cl` (stereo not shown) [ML465, 1H-pyrazole-3-carbonitrile, 1-[2,6-dichloro-4-(trifluoromethyl)phenyl]-5-methyl-4-[(trifluoromethyl)sulfinyl]], the “Duration of above 90% efficacy” value ([1]; study A, 3.0% w/v ML465, Miglyol 840) was 17 days, the “Duration of above 90% efficacy” value ([1]; study B, 0.5% w/v ML465, 5% Polypropylene Glycol (15) stearyl ether, Soybean Oil) was 17 days and the “Duration of above 90% efficacy” value ([1]; study B, 1.0% w/v ML465, 3% Polypropylene Glycol (15) stearyl ether, 8.5% Isopropyl palmitate, 7% Isobutene H25, Soybean Oil) was 17 days. For the same compound, the “Duration of above 90% efficacy” value ([1]; study B, 1.0% w/v ML465, 3% Polypropylene Glycol (15) stearyl ether, 10% Isopropyl palmitate, 7% cetearyl octanoate, 10% butyl stearate, Soybean Oil) was 24 days, the “In-lab Water Resistance (% ML465 Removed after Water Exposure (n = 2))” value ([2]; 20 min, 5% PPG-15 stearyl ether, 6% Isobutene H25, Soybean Oil) was 5.2% and the “In-lab Water Resistance (% ML465 Removed after Water Exposure (n = 2))” value ([2]; 20 min, 5% PPG-15 stearyl ether, 10% Isopropyl palmitate, 10% ceteary octanote, 10% butyl stearate, Soybean Oil) was 8.8%. The “In-lab Water Resistance (% ML465 Removed after Water Exposure (n = 2))” value ([2]; 20 min, 5% PPG-15 stearyl ether, Soybean oil) was 7.5%, the “In-lab Water Resistance (% ML465 Removed after Water Exposure (n = 2))” value ([2]; 20 min, Miglyol 840) was 2.4% and the “In-lab Water Resistance (% ML465 Removed after Water Exposure (n = 2))” value ([2]; 40 min, 5% PPG-15 stearyl ether, 6% Isobutene H25, Soybean Oil) was 7.3%. For the same compound, the “In-lab Water Resistance (% ML465 Removed after Water Exposure (n = 2))” value ([2]; 40 min, 5% PPG-15 stearyl ether, 10% Isopropyl palmitate, 10% ceteary octanote, 10% butyl stearate, Soybean Oil) was 9.2%, the “In-lab Water Resistance (% ML465 Removed after Water Exposure (n = 2))” value ([2]; 40 min, 5% PPG-15 stearyl ether, Soybean oil) was 10.1% and the “In-lab Water Resistance (% ML465 Removed after Water Exposure (n = 2))” value ([2]; 40 min, Miglyol 840) was 5.2%. For the same compound, the “amount of ML465 washed off, % of the applied dose” value ([2]; traditional formulations of trials A and B, exposure to water) was no more than 10%.
